Assay results from patent US20230158025A1 (UNIVERSITY OF UTAH RESEARCH FOUNDATION, priority 2020, published 2023).
Where two headings read alike, the source gives them in different places.

What was measured:
recombinant human GALK1 = recombinant human GALK1 (Homo sapiens, UniProt P51570); assay: hGALK1 biochemical activity assay (Kinase-Glo Plus, ATP depletion)
How it was run: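 Recombinant human or mouse GALK1 (5 nM, with 100 μM galactose, in the added enzyme solution) was run with ATP (35 μM in the substrate solution) in HEPES pH 8.0 buffer. Compounds were tested at 11 1/3-step concentrations from 57.4 μM to 0.97 nM. After 1 h at room temperature, remaining ATP was read by Kinase-Glo Plus luminescence.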

[1] = aqueous kinetic solubility
recombinant mouse GALK1 = recombinant mouse GALK1 (Mus musculus, UniProt Q9R0N0); assay: mGALK1 biochemical activity assay (Kinase-Glo Plus, ATP depletion)
How it was run: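 Recombinant GALK1 (5 nM) with 100 μM galactose; GALK1 turnover read as ATP depletion by Kinase-Glo Plus luminescence. Reaction ran 1 h at room temperature before detection reagent was added.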

[2] = rat microsomal stability (RLM)
[3] = Tables 2-15, 35 μM ATP, 100 μM galactose, 1 h, bracketed figure after some values (e.g. −1.2) is undefined and not reported, read-out: hGALK IC50
[4] = recombinant human GALK1, Kinase-Glo Plus ATP depletion, read-out: hGALK
[5] = Tables 2-15, 35 μM ATP, 100 μM galactose, 1 h, bracketed figure after some values is undefined and not reported, read-out: mGALK IC50
[6] = recombinant mouse GALK1, Kinase-Glo Plus ATP depletion, read-out: mGALK
[7] = recombinant human GALK1, Kinase-Glo Plus ATP depletion, bracketed figure in the cell, e.g. (−1.2), is not defined in the text shown, read-out: hGALK
[8] = recombinant mouse GALK1, Kinase-Glo Plus ATP depletion, bracketed figure in the cell, e.g. (−1.2), is not defined in the text shown, read-out: mGALK
[9] = microsomal stability half-life, minutes

Chain of recombinant mouse GALK1 (Q9R0N0 whole entry): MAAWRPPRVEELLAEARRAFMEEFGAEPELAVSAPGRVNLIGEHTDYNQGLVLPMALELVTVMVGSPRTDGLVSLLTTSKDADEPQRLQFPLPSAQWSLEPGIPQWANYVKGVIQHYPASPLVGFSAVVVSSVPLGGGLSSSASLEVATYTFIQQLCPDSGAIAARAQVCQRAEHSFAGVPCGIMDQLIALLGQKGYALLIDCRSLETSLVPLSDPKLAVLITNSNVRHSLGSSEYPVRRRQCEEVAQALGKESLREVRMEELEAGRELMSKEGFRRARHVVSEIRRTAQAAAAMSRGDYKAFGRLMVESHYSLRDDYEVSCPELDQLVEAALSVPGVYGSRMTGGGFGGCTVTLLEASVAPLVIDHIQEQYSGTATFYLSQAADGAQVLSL
Chain of recombinant human GALK1 (P51570 whole entry): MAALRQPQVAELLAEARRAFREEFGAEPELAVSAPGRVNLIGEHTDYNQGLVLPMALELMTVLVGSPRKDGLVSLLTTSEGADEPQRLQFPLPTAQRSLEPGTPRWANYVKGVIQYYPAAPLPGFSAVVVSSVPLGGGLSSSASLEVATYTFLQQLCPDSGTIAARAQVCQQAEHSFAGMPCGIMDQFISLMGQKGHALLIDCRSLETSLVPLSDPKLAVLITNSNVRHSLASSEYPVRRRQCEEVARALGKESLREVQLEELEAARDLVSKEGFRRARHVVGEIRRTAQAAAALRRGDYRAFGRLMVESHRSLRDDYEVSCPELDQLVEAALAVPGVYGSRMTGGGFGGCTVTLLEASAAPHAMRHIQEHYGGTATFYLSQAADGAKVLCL

IC50 (recombinant human GALK1; [3]) [µM] | IC50 (recombinant human GALK1; [4]) [µM] | Perm. (1 × 10^−6 cm/sec) (PAMPA permeability; PAMPA) | Sol. ([1]; aqueous kinetic solubility) [µg/mL] | IC50 (recombinant mouse GALK1; [5]) [µM] | IC50 (recombinant mouse GALK1; [6]) [µM] | Metab. Stabil. (m) ([2]; microsomal stability half-life) | Perm. (1 × 10^−6 cm/sec) (PAMPA permeability) | Sol. [1] [µg/mL] | Metab. Stabil. (m) ([2]; microsomal half-life) | IC50 (recombinant human GALK1; [7]) [µM] | IC50 (recombinant mouse GALK1; [8]) [µM] | Metab. Stabil. (m) [2, 9] [m] | mGALK (μM) (recombinant mouse GALK1; recombinant mouse GALK1, Kinase-Glo Plus ATP depletion) | SMILES
0.11 | 0.11 | 427.4 1 × 10^−6 cm/sec | <1 | 1.09 | 1.09 | 7.036 |  |  |  |  |  |  |  | CCn1ncc(CNC(=O)C2=C(C)NC(Nc3nc4ccc(F)c(N)c4o3)=NC2c2ccc(C)cc2Cl)c1F (centres unmarked) [Compound 133, 2-((7-amino-6-fluorobenzo[d]oxazol-2-yl)amino)-4-(2-chloro-4-methylphenyl)-N-((1-ethyl-5-fluoro-1H-pyrazol-4-yl)methyl)-6-methyl-1,4-dihydropyrimidine-5-carboxamide]
 |  | 2.9 1 × 10^−6 cm/sec | <1 |  |  |  |  |  |  | 6.11 | 10.9 | >30 |  | CC1=C(C(=O)Nc2nncs2)C(c2cc(Cl)ccc2Cl)N=C(Nc2nc3ccccc3o2)N1 (centres unmarked) [Compound 270, 2-(benzo[d]oxazol-2-ylamino)-4-(2,5-dichlorophenyl)-6-methyl-N-(1,3,4-thiadiazol-2-yl)-1,4-dihydropyrimidine-5-carboxamide]
0.54 | 0.54 | <1 1 × 10^−6 cm/sec | >74 | 3.43 | 3.43 | >30 |  |  |  |  |  |  |  | CC1=C(C(=O)Nc2cc(C(=O)O)ccn2)[C@H](c2ccccc2Cl)N=C(Nc2nc3ccccc3o2)N1 [Compound 208, (R)-2-(2-(benzo[d]oxazol-2-ylamino)-4-(2-chlorophenyl)-6-methyl-1,4-dihydropyrimidine-5-carboxamido)isonicotinic acid]
 |  | 709.3 1 × 10^−6 cm/sec | 3.0 |  |  |  |  |  |  | 4.85 | 6.85 | >30 |  | CC1=C(C(=O)Nc2nncs2)C(c2ncccc2Br)N=C(Nc2nc3ccccc3o2)N1 (centres unmarked) [Compound 257, 2-(benzo[d]oxazol-2-ylamino)-4-(3-bromopyridin-2-yl)-6-methyl-N-(1,3,4-thiadiazol-2-yl)-1,4-dihydropyrimidine-5-carboxamide]
 | 0.19 | 133.5 1 × 10^−6 cm/sec | 23.87 |  | 2.17 | 17.72 |  |  |  |  |  |  |  | CCn1cc(CNC(=O)C2=C(C)NC(Nc3nc4ccc(F)c(N)c4o3)=NC2c2ccccc2Cl)cn1 (centres unmarked) [Compound 136, 2-((7-amino-6-fluorobenzo[d]oxazol-2-yl)amino)-4-(2-chlorophenyl)-N-((1-ethyl-1H-pyrazol-4-yl)methyl)-6-methyl-1,4-dihydropyrimidine-5-carboxamide]
4.85 | 4.85 |  |  | 19.3 | 19.3 |  | 15.5 1 × 10^−6 cm/sec | 2.4 | >30 |  |  |  |  | CC1=C(C(=O)Nc2cc(C(N)=O)ccn2)C(c2ccccc2Cl)N=C(Nc2nc3ccc(F)cc3o2)N1 (centres unmarked) [Compound 38, N-(4-carbamoylpyridin-2-yl)-4-(2-chlorophenyl)-2-((6-fluorobenzo[d]oxazol-2-yl)amino)-6-methyl-1,4-dihydropyrimidine-5-carboxamide]

The remaining lines, values behind:

SMILES | IC50 (recombinant human GALK1; [3]) [µM] | IC50 (recombinant human GALK1; [4]) [µM] | Perm. (1 × 10^−6 cm/sec) (PAMPA permeability; PAMPA) | Sol. ([1]; aqueous kinetic solubility) [µg/mL] | IC50 (recombinant mouse GALK1; [5]) [µM] | IC50 (recombinant mouse GALK1; [6]) [µM] | Metab. Stabil. (m) ([2]; microsomal stability half-life) | Perm. (1 × 10^−6 cm/sec) (PAMPA permeability) | Sol. [1] [µg/mL] | Metab. Stabil. (m) ([2]; microsomal half-life) | IC50 (recombinant human GALK1; [7]) [µM] | IC50 (recombinant mouse GALK1; [8]) [µM] | Metab. Stabil. (m) [2, 9] [m] | mGALK (μM) (recombinant mouse GALK1; recombinant mouse GALK1, Kinase-Glo Plus ATP depletion)
CC1=C(C(=O)Nc2ccccn2)C(c2ccccc2Cl)N=C(Nc2nc3cccc(N)c3o2)N1 (centres unmarked) [Compound 81, 2-((7-aminobenzo[d]oxazol-2-yl)amino)-4-(2-chlorophenyl)-6-methyl-N-(pyridin-2-yl)-1,4-dihydropyrimidine-5-carboxamide] |  | 3.43 |  |  |  | 19.3 |  | 271.13 1 × 10^−6 cm/sec | <1 | >30 |  |  |  | 
CC1=C(C(=O)Nc2cc(C(N)=O)ccn2)C(c2ccccc2Cl)N=C(Nc2nc3ccccc3o2)N1 (centres unmarked) [Compound 212, 2-(benzo[d]oxazol-2-ylamino)-N-(4-carbamoylpyridin-2-yl)-4-(2-chlorophenyl)-6-methyl-1,4-dihydropyrimidine-5-carboxamide] | 2.43 | 2.43 | 156.0 1 × 10^−6 cm/sec | <1 | 7.69 | 7.69 | >30 |  |  |  |  |  |  | 
CC1=C(C(=O)Nc2cc(C#N)ccn2)C(c2ccccc2Cl)N=C(Nc2nc3ccc(F)cc3o2)N1 (centres unmarked) [Compound 39, 4-(2-chlorophenyl)-N-(4-cyanopyridin-2-yl)-2-((6-fluorobenzo[d]oxazol-2-yl)amino)-6-methyl-1,4-dihydropyrimidine-5-carboxamide] | 4.32 | 4.32 |  |  | 4.85 | 4.85 |  | <6.8 1 × 10^−6 cm/sec | <1 | >30 |  |  |  | 
CC1=C(C(=O)Nc2cc(B(O)O)ccn2)C(c2ccc(C)cc2Cl)N=C(Nc2nc3ccc(F)cc3o2)N1 (centres unmarked) [Compound 92, (2-(4-(2-chloro-4-methylphenyl)-2-((6-fluorobenzo[d]oxazol-2-yl)amino)-6-methyl-1,4-dihydropyrimidine-5-carboxamido)pyridin-4-yl)boronic acid] | 1.93 | 1.93 |  |  | 10.9 | 10.9 |  | <3.2 1 × 10^−6 cm/sec | <1 | 14.13 |  |  |  | 
CC1=C(C(=O)Nc2ccc(N(C)C)cc2)C(c2ccccc2Cl)N=C(Nc2nc3ccccc3o2)N1 (centres unmarked) [Compound 152, 2-(benzo[d]oxazol-2-ylamino)-4-(2-chlorophenyl)-N-(4-(dimethylamino)phenyl)-6-methyl-1,4-dihydropyrimidine-5-carboxamide] | 7.69 | 7.69 | 15.0 1 × 10^−6 cm/sec | <1 | 13.7 | 13.7 | 11.45 |  |  |  |  |  |  | 
CC1=C(C(=O)Nc2nnc(-c3cccnc3)s2)C(c2ccccc2Cl)N=C(Nc2nc3ccc(Cl)cc3o2)N1 (centres unmarked) [Compound 94, 2-((6-chlorobenzo[d]oxazol-2-yl)amino)-4-(2-chlorophenyl)-6-methyl-N-(5-(pyridin-3-yl)-1,3,4-thiadiazol-2-yl)-1,4-dihydropyrimidine-5-carboxamide] |  | 27.3 |  |  |  |  |  | <10.3 1 × 10^−6 cm/sec | <1 | >30 |  |  |  | in- active
CC1=C(C(=O)Nc2ccc(CO)nc2)C(c2ccccc2Cl)N=C(Nc2nc3ccccc3o2)N1 (centres unmarked) [Compound 165, 2-(benzo[d]oxazol-2-ylamino)-4-(2-chlorophenyl)-N-(6-(hydroxymethyl)pyridin-3-yl)-6-methyl-1,4-dihydropyrimidine-5-carboxamide] |  | 4.85 | 766.1 1 × 10^−6 cm/sec | <1 |  | 7.69 | >30 |  |  |  |  |  |  | 
CC1=C(C(=O)NCc2c(C)nn(C)c2C)C(c2ccc(C)cc2Cl)N=C(Nc2nc3cccc(N)c3o2)N1 (centres unmarked) [Compound 113, 2-((7-aminobenzo[d]oxazol-2-yl)amino)-4-(2-chloro-4-methylphenyl)-6-methyl-N-((1,3,5-trimethyl-1H-pyrazol-4-yl)methyl)-1,4-dihydropyrimidine-5-carboxamide] | 1.22 | 1.22 |  |  | 6.85 | 6.85 |  | 127.92 1 × 10^−6 cm/sec | 12.0 | 2.369 |  |  |  | 
